# Source: article PMC7395068, “The evolution of strategies to minimise the risk of human drug-induced liver injury (DILI) in drug discovery and development” (Archives of Toxicology, 2020)
# Like-named read-outs stand apart in the source and are kept apart here.
# Experiments:
# [1] = system: hLiMTs; test: Combined HCI (HCS) and cellular ATP 3D assay in hLiMTs
# [2] = system: HepaRG spheroids; test: Combined HCI (HCS) and cellular ATP 3D assay in HepaRG spheroids; conditions: HepaRG; for AC50 / minimal effective concentration: Homo sapiens
# [3] = cited from earlier work
# [4] = plasma free fraction; cited from earlier work
# [5] = system: HepaRG spheroids
# [6] = read-out: Human plasma Cmax; total plasma Cmax.tot, median of 9 literature references; cited from earlier work
# [7] = system: PHH spheroids; conditions: cited from earlier work; for hLiMTs ATP <20 x Cmax: In vitro Assay, ref Vorrink 2018
# [8] = system: HepG2 cells, primary human hepatocytes; conditions: In vitro Assay; ref Garside 2014; cited from earlier work
# [9] = system: HepG2 cells; conditions: cited from earlier work
# [10] = ref Chen 2011; cited from earlier work
# [11] = cited from earlier work; remark: listed apart in the source
# [12] = Plasma free fraction (fu) and unbound Cmax (Cmax,u); type: in vitro ADME, human; conditions: unbound plasma Cmax
# Description: The prediction of DILI severity was evaluated further using the 3D combined HCI assays using plasma-free fraction. The majority of fu values were obtained from literature, when unavailable in-house prediction was utilised. Unbound plasma Cmax concentrations (Cmax,u) were derived by multiplying total plasma Cmax with the corresponding free fraction (fu) for each compound.
# [13] = system: PHH; conditions: cited from earlier work
# [14] = system: hLiMTs
# [15] = system: hLiMTs; conditions: cited from earlier work
# [16] = system: human hepatocytes; conditions: cited from earlier work; for Structural based (HCI): In vitro Assay, ref Xu 2008
# [17] = system: HepG2 cells; conditions: cited from earlier work; remark: listed apart in the source
# [18] = system: PHH; conditions: In vitro Assay; ref Albrecht 2019; cited from earlier work
# [19] = system: HepG2; design: method as in Albrecht 2019; conditions: In vitro Assay; ref Albrecht 2019; cited from earlier work
# [20] = system: THLE or HepG2 cells, isolated mitochondria, BSEP; conditions: cited from earlier work
# [21] = system: THLE-Null and THLE-3A4 cells; conditions: In vitro Assay; ref Gustafsson 2014; cited from earlier work
# [22] = system: rBsep; conditions: In vitro Assay; ref Dawson 2012; cited from earlier work
# [23] = system: primary human hepatocytes, NIH3T3 fibroblasts, BSEP, CYP3A4; conditions: cited from earlier work
# [24] = In vitro Assay, ref Persson 2013
# [25] = In vitro Assay, ref Proctor 2017
# [26] = In vitro Assay, ref Schadt 2015
smiles,measurement,setting,value
O=C1CN(/N=C/c2ccc(-c3ccc([N+](=O)[O-])cc3)o2)C(O)=N1 [dantrolene],"DILI prediction hLiMTs, HCI alone","[1]; HCS endpoints only, 25 × Cmax.tot cut-off",detection
same,AC50,"[1]; Homo sapiens, read-out: HCS endpoint AC50",51 µM
same,minimal effective concentration,"[1]; Homo sapiens, read-out: HCS endpoint MEC",10.5 µM
same,"DILI prediction hLiMTs, ATP alone","[1]; cellular ATP only, 25 × Cmax.tot cut-off",unpredicted
same,hLiMTs <25x Avg Cmax ATP,"[1]; hLiMTs, ATP endpoint, cut-off <25x Avg Cmax",-ve
same,hLiMTs <100x Avg Cmaxu ATP,"[1]; hLiMTs, ATP endpoint, cut-off <100x Avg Cmaxu",-ve
same,hLiMTs <25x Avg Cmax HCS,"[1]; hLiMTs, HCS endpoints, cut-off <25x Avg Cmax",+ve
same,hLiMTs <100x Avg Cmaxu HCS,"[1]; hLiMTs, HCS endpoints, cut-off <100x Avg Cmaxu",+ve (<100x Avg Cmaxu)
same,hLiMTs <25x Avg Cmax All,"[1]; hLiMTs, all endpoints (ATP and HCS), cut-off <25x Avg Cmax",+ve
same,hLiMTs Cmax max All,"[1]; hLiMTs, all endpoints, Cmax max used",+ve
same,hLiMTs Cmax min All,"[1]; hLiMTs, all endpoints, Cmax min used",-ve
same,hLiMTs <10 uM All,"[1]; hLiMTs, all endpoints, cut-off <10 uM",-ve
same,hLiMTs <100x Avg Cmaxu All,"[1]; hLiMTs, all endpoints, cut-off <100x Avg Cmaxu",+ve (<100x Avg Cmaxu)
same,HepaRG <25x Avg Cmax ATP,"[2]; ATP endpoint, cut-off <25x Avg Cmax",+ve
same,HepaRG <100x Avg Cmaxu ATP,"[2]; ATP endpoint, cut-off <100x Avg Cmaxu",+ve (<100x Avg Cmaxu)
same,HepaRG <25x Avg Cmax HCS,"[2]; HCS endpoints, cut-off <25x Avg Cmax",+ve
same,HepaRG <100x Avg Cmaxu HCS,"[2]; HCS endpoints, cut-off <100x Avg Cmaxu",+ve (<100x Avg Cmaxu)
same,HepaRG <25x Avg Cmax All,"[2]; all endpoints (ATP and HCS), cut-off <25x Avg Cmax",+ve
same,HepaRG Cmax max All,"[2]; all endpoints, Cmax max used",+ve
same,HepaRG Cmax min All,"[2]; all endpoints, Cmax min used",-ve
same,HepaRG <10 uM All,"[2]; all endpoints, cut-off <10 uM",-ve
same,HepaRG <100x Avg Cmaxu All,"[2]; all endpoints, cut-off <100x Avg Cmaxu",+ve (<100x Avg Cmaxu)
same,AC50,[2]; read-out: ATP endpoint AC50,100 µM
same,minimal effective concentration,[2]; read-out: ATP endpoint MEC,53.2 µM
same,AC50,[2]; read-out: HCS endpoint AC50,174 µM
same,minimal effective concentration,[2]; read-out: HCS endpoint MEC,14.5 µM
same,DILI severity category (Chen et al. [2016]),"[3]; LTKB DILIrank category, ref Chen et al. 2016",Most
same,DILI severity category (Chen 2016),"[3]; human DILI classification, LTKB DILIrank, ref Chen et al. 2016",Most
same,DILI severity category,"[3]; human DILI severity, ref Chen et al.",Most
same,"DILI +VE (5-8), DILI -VE (-4)",[3]; ref Chen 2016,+VE
same,DILI severity category,[3]; ref Chen 2016,vMost-DILI-Concern
same,fu,[4],0.140
same,DILI prediction HepaRG spheroids (HCS-MEC),[5],+VE (MEC < 25 × Cmax.tot cut-off)
same,Cmax,[6],3.95 µM
same,hLiMTs ATP <20 x Cmax,[7],+VE (IC20 < 20 × Cmax.tot cut-off)
same,"DILI in vitro assay prediction, Vorrink (2018)","[7]; PHH spheroids, ATP, 14 days, IC20 < 20 × Cmax.tot, ref Vorrink et al. 2018",+VE (IC20 < 20 × Cmax.tot cut-off)
same,Cluster 1-6 +VE Assay,[8],-VE
same,Cluser analysis,[9]; [24],-VE
same,Structural based (HCI),[9]; [24],+VE
same,"DILI in vitro assay prediction, Persson (2013)","[9]; Structural based (HCI), HepG2, ref Persson et al. 2013",-VE
same,DILI Score (FDA) (1-8),[10],8
same,Assigned DILI category,"[11]; Chen et al. 2016 or literature alignment, ref Chen et al. 2016",3
same,In vivo DILI,[11]; […],+VE
same,In vivo DILI,[11]; ref Garside 2014,+VE
same,In vivo DILI,[11]; ref O'Brien 2006,+VE
same,In vivo DILI,[11]; ref Persson 2013,+VE
same,In vivo DILI,[11]; ref Proctor 2017,+VE
same,In vivo DILI,[11]; ref Vorrink 2018,+VE
same,In vivo DILI,[11]; ref Williams 2019,+VE
same,In vivo DILI,[11]; ref Xu 2008,+VE
same,"Human plasma Cmax,u",[12],0.552 µM
same,"PHH/100uM, Proctor (2017)","[13]; 2D PHH, ATP, IC50 threshold 100 µM, ref Proctor et al. 2017",-VE
same,PHH ATP <100uM,[13]; [25],-VE
same,DILI prediction hLiMTs (HCS-MEC),[14],+VE (MEC < 25 × Cmax.tot cut-off)
same,hLiMTs ATP <100uM,[15]; [25],-VE
same,"hLiMTs/100uM, Proctor (2017)","[15]; hLiMTs, ATP, IC50 threshold 100 µM, ref Proctor et al. 2017",-VE
same,Structural based (HCI),[16],+VE
same,"DILI in vitro assay prediction, Xu (2008)","[16]; Structural based (HCI), human hepatocytes, ref Xu et al. 2008",+VE
same,Structural based (HCI),"[17]; In vitro Assay, ref O'Brien 2006",+VE
same,"DILI in vitro assay prediction, O'Brien (2006)","[17]; Structural based (HCI), HepG2, ref O'Brien et al. 2006",+VE (lowest HCI endpoint IC50 (or in the absence of dose–response < 100 µM) < 30 × total human plasma exposure levels (Cmax.tot))
OCCOCCN1CCN(C(c2ccccc2)c2ccc(Cl)cc2)CC1 (stereo not shown) [hydroxyzine],Cytotoxicity PHH 48 hrs,[18],-VE
same,"DILI +VE (5-8), DILI -VE (-4)",[3]; ref Chen 2016,-VE
same,DILI severity category,[3]; ref Chen 2016,vNo-DILI-Concern
same,Cytotoxicity HepG2 48 hrs,[19],-VE
same,In vivo DILI,[11]; […],-VE
same,In vivo DILI,[11]; ref Albrecht 2019,-VE
same,In vivo DILI,[11]; ref Aleo 2019,-VE
same,Partition Hybrid HRM Score,"[20]; In vitro Assay, ref Aleo 2019",+VE
same,Ro2 Hybrid HRM Score,"[20]; In vitro Assay, ref Aleo 2019",+VE
C[C@H]1COc2c(N3CCN(C)CC3)c(F)cc3c(=O)c(C(=O)O)cn1c23 [levofloxacin],Cytotoxicity PHH 48 hrs,[18],+VE
same,"DILI +VE (5-8), DILI -VE (-4)",[3]; in vivo,+VE
same,DILI severity category,[3]; in vivo,vMost-DILI-Concern
same,THLE-Null,[21],-VE
same,Cytotoxicity HepG2 48 hrs,[19],+VE
same,Inhibition of rBsep cutoff<1& cmax u>.2,[22],-VE
same,Inhibition of rBsep cutoff<3,[22],-VE
same,Cellular toxicity (3T3 cells),[23],-VE
same,Combined Assay,[23],-VE
same,GSH adduct HML,[23],-VE
same,Hepatocyte cellular toxicity,[23],-VE
same,MitoTox 3T3,[23],-VE
same,TDI CYP3A4,[23],-VE
same,hBSEP inhibition,[23],-VE
same,Structural based (HCI),[16],-VE
CC(CN1c2ccccc2Sc2ccccc21)N(C)C (stereo not shown) [promethazine],Cytotoxicity PHH 48 hrs,[18],-VE
same,"DILI +VE (5-8), DILI -VE (-4)",[3]; ref Chen 2016,+VE
same,DILI severity category,[3]; ref Chen 2016,vLess-DILI-Concern
same,hLiMTs ATP <20 x Cmax,[7],-VE
same,Cytotoxicity HepG2 48 hrs,[19],-VE
same,In vivo DILI,[11]; ref Albrecht 2019,-VE
same,In vivo DILI,[11]; ref Schadt 2015,-VE
same,In vivo DILI,[11]; ref Vorrink 2018,-VE
same,In vivo DILI,[11]; ref Xu 2008,-VE
same,Cellular toxicity (3T3 cells),[23]; [26],+VE
same,Combined Assay,[23]; [26],-VE
same,GSH adduct HML,[23]; [26],+VE
same,Hepatocyte cellular toxicity,[23]; [26],-VE
same,MitoTox 3T3,[23]; [26],-VE
same,TDI CYP3A4,[23]; [26],-VE
same,hBSEP inhibition,[23]; [26],-VE
same,Structural based (HCI),[16],-VE
"CC(C)NCC(O)COc1cccc2ccccc12 (stereo not shown) [propranolol, reference compound]",Cytotoxicity PHH 48 hrs,[18],-VE
same,response of PHH spheroids at 5 × Cmax.tot,"[7]; ATP, 14 days, not positive at higher concentrations, ref Vorrink et al. 2018",positive
same,hLiMTs ATP <20 x Cmax,[7],-VE
same,Cytotoxicity HepG2 48 hrs,[19],-VE
same,Inhibition of rBsep cutoff<1& cmax u>.2,[22],-VE
same,Inhibition of rBsep cutoff<3,[22],-VE
same,Ro2 Hybrid HRM Score,"[20]; In vitro Assay, ref Aleo 2019",-VE
same,Partition Hybrid HRM Score,[20],+VE
